According to US8362000B2, “Azetidinyl diamides as monoacylglycerol lipase inhibitors” (Janssen Pharmaceutica NV, priority 2009, dated 2013):
pKd: −log10 of the molar value.

Biological target: T1, mutant MGL (Homo sapiens, UniProt Q99685, L169S/L176S)
T1 sequence (Q99685 1-303 L169S/L176S): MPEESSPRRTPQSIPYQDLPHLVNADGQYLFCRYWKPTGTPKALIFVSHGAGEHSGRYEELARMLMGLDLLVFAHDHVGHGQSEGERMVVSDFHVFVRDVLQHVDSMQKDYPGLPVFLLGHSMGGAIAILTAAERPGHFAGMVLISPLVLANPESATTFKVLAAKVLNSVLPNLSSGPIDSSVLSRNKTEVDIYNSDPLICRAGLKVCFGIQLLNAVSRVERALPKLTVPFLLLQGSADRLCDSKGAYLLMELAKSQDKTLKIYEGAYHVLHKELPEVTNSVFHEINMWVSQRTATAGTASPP
Test: MGL ThermoFluor assay - mutant
Format: binding
Conditions: ThermoFluor concentration-response, read-out: MGL mutant ThermoFluor Kd
Experimental: The ThermoFluor (TF) assay is a 384-well plate-based binding assay that measures thermal stability of proteins^1,2. […] TF dye used in all experiments was 1,8-ANS (Invitrogen: A-47). Final TF assay conditions used for MGL studies were 0.07 mg/ml of mutant MGL, 100 μM ANS, 200 mM NaCl, 0.001% Tween-20 in 50 mM PIPES (pH=7.0).
Screening compound plates contained 100% DMSO compound solutions at a single concentration. […] Columns 12 and 24 were used as DMSO reference and contained no compound. […] Following compound dispension, protein and dye solutions were added to achieve the final assay volume of 3 μL.
Bar-coded assay plates were robotically loaded onto a thermostatically controlled PCR-type thermal block and then heated from 40 to 90° C. degrees at a ramp-rate of 1° C./min for all experiments. Fluorescence was measured by continuous illumination with UV light (Hamamatsu LC6), supplied via fiber optics and filtered through a band-pass filter (380-400 nm; >60D cutoff). Fluorescence emission of the entire 384-well plate was detected by measuring light intensity using a CCD camera (Sensys, Roper Scientific) filtered to detect 500±25 nm, resulting in simultaneous and independent readings of all 384 wells. A single image with 20-sec exposure time was collected at each temperature, and the sum of the pixel intensity in a given area of the assay plate was recorded vs temperature and fit to standard equations to yield the Tm^1. • 1.
For some experiments, quantitative NMR spectroscopy (qNMR) was used to measure concentration of the initial 100% DMSO compound solutions and, using the same fitting method, qKd values were determined

Row | pKd | SMILES
1 | 5.18 | O=C(c1ccccc1)N1CCN(C2CN(C(=O)c3ccc(-c4ccccc4)cc3)C2)C(CO)C1 (stereo not drawn) [Cpd 458, {1-[1-(Biphenyl-4-ylcarbonyl)azetidin-3-yl]-4-(phenylcarbonyl)piperazin-2-yl}methanol]
2 | 7.43 | O=C(c1ccccc1)N1CCN(C2CN(C(=O)c3ccc(-c4ccccc4Cl)cc3)C2)CC1 [Cpd 36, 1-{1-[(2′-Chlorobiphenyl-4-yl)carbonyl]azetidin-3-yl}-4-(phenylcarbonyl)piperazine]
3 | 5.60 | Cn1ccnc1C(=O)N1CCN(C2CN(C(=O)c3ccc(C4CCCCC4)cc3)C2)CC1 [Cpd 3, 1-{1-[(4-Cyclohexylphenyl)carbonyl]azetidin-3-yl}-4-[(1-methyl-1H-imidazol-2-yl)carbonyl]piperazine]
4 | 6.23 | COc1ccc(-c2ccc(C(=O)N3CC(N4CCN(C(=O)c5ccccc5)CC4)C3)cc2)cc1 [Cpd 34, 1-{1-[(4′-Methoxybiphenyl-4-yl)carbonyl]azetidin-3-yl}-4-(phenylcarbonyl)piperazine]
5 | 5.30 | O=C(/C=C/c1ccc2ccccc2c1)N1CC(N2CCN(C(=O)c3ccccc3)CC2)C1 [Cpd 105, 1-{1-[(2E)-3-Naphthalen-2-ylprop-2-enoyl]azetidin-3-yl}-4-(phenylcarbonyl)piperazine]
6 | 8.22 | COc1cc(C(=O)N2CC(N3CCN(C(=O)c4nccs4)CC3)C2)ccc1-c1ccccc1 [Cpd 1377]
7 | 6.72 | O=C(c1ccccc1)N1CCN(C2CN(C(=O)c3ccc(Oc4ccccc4)cc3)C2)CC1 [Cpd 32, 1-{1-[(4-Phenoxyphenyl)carbonyl]azetidin-3-yl}-4-(phenylcarbonyl)piperazine]
8 | 6.60 | O=C(c1ccccc1)N1CCN(C2CN(C(=O)c3ccc(Oc4cccc(Cl)c4)cc3)C2)CC1 [Cpd 426]
9 | 5.30 | COc1cc(C(=O)N2CC(N3CCN(C(=O)c4cscn4)CC3)C2)ccc1Br [Cpd 23, 1-{1-[(4-Bromo-3-methoxyphenyl)carbonyl]azetidin-3-yl}-4-(1,3-thiazol-4-ylcarbonyl)piperazine]
10 | 7.60 | O=C(c1nccs1)N1CCN(C2CN(C(=O)C3CCC(c4ccccc4)CC3)C2)CC1 (stereo not drawn) [Cpd 475]
11 | 8.40 | O=C(c1ccc(Oc2cccc(Cl)c2)cc1)N1CC(N2CCN(C(=O)c3nccs3)CC2)C1 [Cpd 421, 1-(1-{[4-(3-Chlorophenoxy)phenyl]carbonyl}azetidin-3-yl)-4-(1,3-thiazol-2-ylcarbonyl)piperazine]
12 | 7.83 | O=C(c1ccc(CSc2cccc(Cl)c2)cc1)N1CC(N2CCN(C(=O)c3nccs3)CC2)C1 [Cpd 454]
13 | 5.30 | COc1cc(C(=O)N2CC(N3CCN(C(=O)c4ccccc4)CC3)C2)ccc1Br [Cpd 24, 1-{1-[(4-Bromo-3-methoxyphenyl)carbonyl]azetidin-3-yl}-4-(phenylcarbonyl)piperazine]
14 | 7.30 | O=C(c1ccccc1)N1CCN(C2CN(C(=O)c3ccc(O[C@H]4CCN(C(=O)N5CCCC5)C4)c(I)c3)C2)CC1 [Cpd 450, 1-{1-[(3-Iodo-4-{[(3S)-1-(pyrrolidin-1-ylcarbonyl)pyrrolidin-3-yl]oxy}phenyl)carbonyl]azetidin-3-yl}-4-(phenylcarbonyl)piperazine]
15 | 5.48 | O=C(c1ccccc1)N1CCN(C2CN(C(=O)c3ccc(Oc4ccccn4)c(F)c3)C2)CC1 [Cpd 537]
16 | 6.84 | O=C(c1ccc(C2CCCCC2)cc1)N1CC(N2CCN(C(=O)c3ccccn3)CC2)C1 [Cpd 4, 1-{1-[(4-Cyclohexylphenyl)carbonyl]azetidin-3-yl}-4-(pyridin-2-ylcarbonyl)piperazine]
17 | 5.20 | O=C(/C=C/c1ccccc1Cl)N1CC(N2CCN(C(=O)c3ccccc3)CC2)C1 [Cpd 103, 1-{1-[(2E)-3-(2-Chlorophenyl)prop-2-enoyl]azetidin-3-yl}-4-(phenylcarbonyl)piperazine]
18 | 6.50 | COc1cc(NCc2ccccc2)c(Cl)cc1C(=O)N1CC(N2CCN(C(=O)c3ccccc3)CC2)C1 [Cpd 529]

Row | pKd | SMILES
19 | 5.53 | CSc1ccc(C(=O)N2CC(N3CCN(C(=O)c4ccccc4)CC3)C2)cc1 [Cpd 470, 1-(1-{[4-(Methylsulfanyl)phenyl]carbonyl}azetidin-3-yl)-4-(phenylcarbonyl)piperazine]
20 | 8.48 | O=C(c1ccc(-c2ccccc2)cc1)N1CC(N2CCN(C(=O)c3nccs3)CC2c2ccccc2)C1 (stereo not drawn) [Cpd 114]
21 | 6.58 | Cc1nc(-c2ccc(F)cc2)sc1C(=O)N1CC(N2CCN(C(=O)c3ccccc3)CC2)C1 [Cpd 621, 1-(1-{[2-(4-Fluorophenyl)-4-methyl-1,3-thiazol-5-yl]carbonyl}azetidin-3-yl)-4-(phenylcarbonyl)piperazine]
22 | 7.18 | O=C(c1ccccc1)N1CCN(C2CN(C(=O)c3ccc(SCc4ccc(Cl)c(Cl)c4)cc3)C2)CC1 [Cpd 417]
23 | 5.48 | O=C(c1ccc(Cc2ccccc2)cc1)N1CC(N2CCN(C(=O)c3ccccc3)C(CO)C2)C1 (stereo not drawn) [Cpd 459, [4-{1-[(4-Benzylphenyl)carbonyl]azetidin-3-yl}-1-(phenylcarbonyl)piperazin-2-yl]methanol]
24 | 5.18 | O=C(c1ccccc1)N1CCN(C2CN(C(=O)c3ccc(F)cc3)C2)CC1 [Cpd 49, 1-{1-[(4-Fluorophenyl)carbonyl]azetidin-3-yl}-4-(phenylcarbonyl)piperazine]
25 | 7.00 | O=C(c1ccccc1)N1CCN(C2CN(C(=O)c3ccc(NCc4ccc5ccccc5c4)cc3)C2)CC1 [Cpd 491, N-(Naphthalen-2-ylmethyl)-4-({3-[4-(phenylcarbonyl)piperazin-1-yl]azetidin-1-yl}carbonyl)aniline]
26 | 7.00 | O=C(c1ccccc1)N1CCN(C2CN(C(=O)c3ccc(N4CCCC4)cc3)C2)CC1 [Cpd 29, 1-(Phenylcarbonyl)-4-{1-[(4-pyrrolidin-1-ylphenyl)carbonyl]azetidin-3-yl}piperazine]
27 | 5.48 | O=C(c1ccccc1)N1CCN(C2CN(C(=O)c3ccccc3NCc3ccccc3)C2)CC1 [Cpd 52, N-Benzyl-2-({3-[4-(phenylcarbonyl)piperazin-1-yl]azetidin-1-yl}carbonyl)aniline]
28 | 5.90 | O=C(c1ccc(-c2ccccc2)cc1)N1CCN(C2CN(C(=O)c3nccs3)C2)C(c2ccccc2)C1 (stereo not drawn) [Cpd 1401, 4-(Biphenyl-4-ylcarbonyl)-2-phenyl-1-[1-(1,3-thiazol-2-ylcarbonyl)azetidin-3-yl]piperazine]
29 | 7.60 | O=C(c1cccc(-c2cccc(Br)n2)c1)N1CC(N2CCN(C(=O)c3nccs3)CC2)C1 [Cpd 151, 1-(1-{[3-(6-Bromopyridin-2-yl)phenyl]carbonyl}azetidin-3-yl)-4-(1,3-thiazol-2-ylcarbonyl)piperazine]
30 | 6.76 | Cc1nc(-c2ccc(Cl)cc2)sc1C(=O)N1CC(N2CCN(C(=O)c3ccccc3)CC2)C1 [Cpd 619]
31 | 6.48 | N#Cc1cccc(-c2ccc(C(=O)N3CC(N4CCN(C(=O)c5ccccc5)CC4)C3)cc2)c1 [Cpd 76, 4′-({3-[4-(Phenylcarbonyl)piperazin-1-yl]azetidin-1-yl}carbonyl)biphenyl-3-carbonitrile]
32 | 5.34 | O=C(c1ccccc1)N1CCN(C2CN(C(=O)c3ccc(Br)cc3)C2)CC1 [Cpd 27, 1-{1-[(4-Bromophenyl)carbonyl]azetidin-3-yl}-4-(phenylcarbonyl)piperazine]
33 | 7.22 | O=C(c1ccccc1)N1CCN(C2CN(C(=O)c3ccc(CNc4cccc(Cl)c4)cc3)C2)CC1 [Cpd 549]
34 | 7.37 | O=C(c1ccc2c(ccn2-c2ncc(F)cn2)c1)N1CC(N2CCN(C(=O)c3cscn3)CC2)C1 [Cpd 1248, 1-(5-Fluoropyrimidin-2-yl)-5-({3-[4-(1,3-thiazol-4-ylcarbonyl)piperazin-1-yl]azetidin-1-yl}carbonyl)-1H-indole]
35 | 7.40 | O=C(c1ccc2c(ccn2C(=O)c2ccc3c(c2)CCN3)c1)N1CC(N2CCN(C(=O)c3nccs3)CC2)C1 [Cpd 988, 1-(2,3-Dihydro-1H-indol-5-ylcarbonyl)-5-({3-[4-(1,3-thiazol-2-ylcarbonyl)piperazin-1-yl]azetidin-1-yl}carbonyl)-1H-indole]
36 | 8.30 | O=C(c1ccc(Cc2ccc(C(F)(F)F)cc2)cc1)N1CC(N2CCN(C(=O)c3nccs3)CC2)C1 [Cpd 985]

Same assay, conditions: ThermoFluor thermal stability binding assay, read-out: MGL mutant ThermoFluor Kd

Row | pKd | SMILES
37 | 6.07 | O=C(c1ccccc1)N1CCN(C2CN(C(=O)c3ccc(OCc4ccc(S(=O)(=O)N5CCOCC5)cc4)cc3)C2)CC1 [Cpd 394]
38 | 8.77 | O=C(c1ccc(OCc2ccc(Cl)c(Cl)c2)c(Cl)c1)N1CC(N2CCN(C(=O)c3nccs3)CC2)C1 [Cpd 404]
39 | 9.40 | O=C(c1nccs1)N1CCN(C2CN(C(=O)c3sc4cc(-c5ccccc5)ccc4c3Cl)C2)CC1 [Cpd 343, 1-{1-[(3-Chloro-6-phenyl-1-benzothiophen-2-yl)carbonyl]azetidin-3-3yl}-4-(1,3-thiazol-2-ylcarbonyl)piperazine]
40 | 6.84 | CS(=O)(=O)c1cccc(-c2ccc(C(=O)N3CC(N4CCN(C(=O)c5ccccc5)CC4)C3)cc2)c1 [Cpd 231, 1-(1-{[3′-(Methylsulfonyl)biphenyl-4-yl]carbonyl}azetidin-3-yl)-4-(phenylcarbonyl)piperazine]
41 | 5.69 | O=C(c1ccccc1)N1CCN(C2CN(C(=O)c3ccc(OCc4cccnc4)c(Cl)c3)C2)CC1 [Cpd 409]
42 | 6.03 | O=C(c1ccc(OCc2cncc(Cl)c2)cc1)N1CC(N2CCN(C(=O)c3cscn3)CC2)C1 [Cpd 981]
43 | 5.71 | O=C(c1ccccc1)N1CCN(C2CN(C(=O)c3ccc(OCc4ccncc4)c(Cl)c3)C2)CC1 [Cpd 408]
44 | 6.70 | CS(=O)(=O)c1cccc(-c2ccc(C(=O)N3CC(N4CCN(C(=O)c5cscn5)CC4)C3)cc2)c1 [Cpd 236, 1-(1-{[3′-(Methylsulfonyl)biphenyl-4-yl]carbonyl}azetidin-3-yl)-4-(1,3-thiazol-4-ylcarbonyl)piperazine]
45 | 6.70 | O=C(c1nccs1)N1CCN(C2CN(C(=O)c3cccc4nc(Cc5ccc(Cl)cc5)[nH]c34)C2)CC1 [Cpd 991]
